pIC50: −log10 of the molar value.
Tests used:
[1] = biological target: T1, KRas G13D (Homo sapiens, UniProt P01116, G13D); assay: KRas binding assay (TR-FRET displacement);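 further: One-hour room temperature incubation before TR-FRET reading, IC50 from a four-parameter curve fit to percent-of-control data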
T1 construct: Biotinylated KRas (corresponding to amino acids 1-169, produced at Accelegan Inc.); biotin (biotinylated); purchased Accelegan Inc
Procedure: (§1) The ability of a compound to bind to KRas was measured using a TR-FRET displacement assay. […] After a 60-minute incubation at room temperature, the reaction was measured using a BMG LABTECH CLARIO star Plus via TR-FRET. […] The POC values were fit to a 4-parameter IC50 equation and the IC50 value reported.

[2] = biological target: T2, KRas Q61H (Homo sapiens, UniProt P01116, Q61H); assay: KRas binding assay (TR-FRET displacement);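 further: TR-FRET signal read after one hour at room temperature, IC50 derived by four-parameter fitting of percent-of-control values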
T2 construct: Biotinylated KRas (corresponding to amino acids 1-169, produced at Accelegan Inc.); biotin (biotinylated); purchased Accelegan Inc
T2 sequence (P01116 1-169 isoform P01116-2 Q61H): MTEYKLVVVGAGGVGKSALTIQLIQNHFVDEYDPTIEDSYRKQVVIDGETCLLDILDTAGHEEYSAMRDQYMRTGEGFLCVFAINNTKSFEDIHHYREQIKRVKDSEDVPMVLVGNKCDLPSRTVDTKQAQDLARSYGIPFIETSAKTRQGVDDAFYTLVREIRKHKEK
Procedure: as §1

[3] = biological target: KRas G12D (Homo sapiens, UniProt P01116, G12D); assay: biochemical;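 further: TR-FRET displacement binding assay on KRas, read after a one-hour incubation at room temperature, IC50 fitted from percent-of-control values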
Chain of KRas G12D (P01116 1-169 isoform P01116-2 G12D): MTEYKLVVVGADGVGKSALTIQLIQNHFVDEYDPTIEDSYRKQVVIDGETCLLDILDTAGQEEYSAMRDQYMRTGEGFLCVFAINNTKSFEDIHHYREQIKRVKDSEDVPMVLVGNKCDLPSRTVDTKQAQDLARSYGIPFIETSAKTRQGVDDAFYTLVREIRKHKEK
Procedure: as §1

[4] = biological target: KRas G12V (Homo sapiens, UniProt P01116, G12V); assay: biochemical;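 further: KRas binding measured by TR-FRET displacement at room temperature, IC50 fitted from percent of control values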
Chain of KRas G12V (P01116 1-169 isoform P01116-2 G12V): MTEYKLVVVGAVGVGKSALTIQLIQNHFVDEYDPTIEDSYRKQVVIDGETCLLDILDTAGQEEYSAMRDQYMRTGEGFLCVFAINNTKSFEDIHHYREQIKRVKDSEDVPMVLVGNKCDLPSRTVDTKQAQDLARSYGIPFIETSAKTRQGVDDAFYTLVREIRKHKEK
Procedure: as §1

[5] = biological target: KRas G12R (Homo sapiens, UniProt P01116, G12R); assay: biochemical;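 further: TR-FRET displacement assay of compound binding to KRas, read after one hour at room temperature, potency from a four-parameter fit of percent-of-control values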
Chain of KRas G12R (P01116 1-169 isoform P01116-2 G12R): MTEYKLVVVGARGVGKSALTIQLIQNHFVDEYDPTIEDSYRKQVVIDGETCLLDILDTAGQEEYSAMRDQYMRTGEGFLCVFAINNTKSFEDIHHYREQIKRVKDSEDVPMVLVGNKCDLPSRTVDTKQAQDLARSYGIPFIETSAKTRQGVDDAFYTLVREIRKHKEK
Procedure: as §1

[6] = biological target: KRas G12A (Homo sapiens, UniProt P01116, G12A); assay: biochemical;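 further: binding to KRas measured by TR-FRET displacement after one hour at room temperature, IC50 from a four-parameter fit of percent-of-control values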
Chain of KRas G12A (P01116 1-169 isoform P01116-2 G12A): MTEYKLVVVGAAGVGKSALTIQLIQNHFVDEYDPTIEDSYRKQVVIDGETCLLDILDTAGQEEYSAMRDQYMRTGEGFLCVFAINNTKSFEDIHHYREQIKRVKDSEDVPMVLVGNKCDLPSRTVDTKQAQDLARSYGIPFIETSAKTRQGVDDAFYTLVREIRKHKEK
Procedure: as §1

[7] = biological target: KRas G12S (Homo sapiens, UniProt P01116, G12S); assay: biochemical;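 further: TR-FRET displacement binding to KRas, read after one hour incubation at room temperature, IC50 from four-parameter fit of percent of control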
Chain of KRas G12S (P01116 1-169 isoform P01116-2 G12S): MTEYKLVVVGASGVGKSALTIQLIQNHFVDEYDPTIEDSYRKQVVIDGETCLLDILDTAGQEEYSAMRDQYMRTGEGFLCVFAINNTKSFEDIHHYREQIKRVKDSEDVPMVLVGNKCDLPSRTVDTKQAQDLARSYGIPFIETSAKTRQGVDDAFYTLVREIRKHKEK
Procedure: as §1

[8] = biological target: KRas G12C (Homo sapiens, UniProt P01116, G12C); assay: biochemical;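 further: binding to KRas assessed by TR-FRET displacement after one hour incubation at room temperature, potency fitted from percent-of-control values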
Chain of KRas G12C (P01116 1-169 isoform P01116-2 G12C): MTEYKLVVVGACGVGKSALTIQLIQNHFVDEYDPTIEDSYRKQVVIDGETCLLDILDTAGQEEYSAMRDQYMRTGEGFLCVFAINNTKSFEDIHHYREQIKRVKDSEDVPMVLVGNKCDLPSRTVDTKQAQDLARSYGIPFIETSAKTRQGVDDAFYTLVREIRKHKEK
Procedure: as §1

[9] = biological target: KRas WT (Homo sapiens, UniProt P01116); assay: biochemical;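 further: binding to KRas read as TR-FRET displacement after a one-hour room-temperature incubation, IC50 derived from percent-of-control values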
Chain of KRas WT (P01116 1-169 isoform P01116-2): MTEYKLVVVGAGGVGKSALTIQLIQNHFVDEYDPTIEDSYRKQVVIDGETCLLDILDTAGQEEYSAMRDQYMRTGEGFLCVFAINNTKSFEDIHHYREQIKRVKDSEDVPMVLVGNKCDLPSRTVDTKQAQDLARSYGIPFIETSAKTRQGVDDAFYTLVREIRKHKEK
Procedure: as §1

T1 sequence (P01116 1-169 isoform P01116-2 G13D): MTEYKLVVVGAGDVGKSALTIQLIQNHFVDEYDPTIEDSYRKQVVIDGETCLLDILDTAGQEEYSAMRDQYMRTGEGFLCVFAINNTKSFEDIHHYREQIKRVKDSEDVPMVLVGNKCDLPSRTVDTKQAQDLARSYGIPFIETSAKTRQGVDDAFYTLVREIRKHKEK

SMILES	IC50 [1] [nM]	IC50 [2] [nM]	pIC50 [3]	pIC50 [4]	pIC50 [5]	pIC50 [6]	pIC50 [7]	pIC50 [8]	pIC50 [9]
O=CNC1CCCN(c2nc(OCC34CCCN3CCC4)nc3c(F)c(-c4cccc5cccc(F)c45)ncc23)C1 (stereo not drawn) [Example 242, N-(1-(8-fluoro-7-(8-fluoronaphthalen-1-yl)-2-((hexahydro-1H-pyrrolizin-7a-yl)methoxy)pyrido[4,3-d]pyrimidin-4-yl)piperidin-3-yl)formamide]	7860	13600	5.10	5.12	4.89	5.09	5.21	5.16	4.96
NC(=O)NC1CCN(c2nc(OCC34CCCN3CCC4)nc3c(F)c(-c4cccc5cccc(F)c45)ncc23)CC1 [Example 243, 1-(1-(8-fluoro-7-(8-fluoronaphthalen-1-yl)-2-((hexahydro-1H-pyrrolizin-7a-yl)methoxy)pyrido[4,3-d]pyrimidin-4-yl)piperidin-4-yl)urea]	2960	3580	4.60	5.66	5.98	5.98	5.74	5.94	5.48
O=CNC1CCN(c2nc(OCC34CCCN3CCC4)nc3c(F)c(-c4cccc5cccc(F)c45)ncc23)CC1 [Example 244, N-(1-(8-fluoro-7-(8-fluoronaphthalen-1-yl)-2-((hexahydro-1H-pyrrolizin-7a-yl)methoxy)pyrido[4,3-d]pyrimidin-4-yl)piperidin-4-yl)formamide]	4860	5080	4.74	5.45	5.51	5.73	5.51	5.55	5.29
O=S1(=O)NCCC2(CCCN(c3nc(OCC45CCCN4CCC5)nc4c(F)c(-c5cccc6cccc(F)c56)ncc34)C2)N1 (stereo not drawn) [Example 247, 8-(8-fluoro-7-(8-fluoronaphthalen-1-yl)-2-((hexahydro-1H-pyrrolizin-7a-yl)methoxy)pyrido[4,3-d]pyrimidin-4-yl)-2-thia-1,3,8-triazaspiro[5.5]undecane 2,2-dioxide]	1180	2060	6.37	5.74	5.59	5.68	5.67	5.57	5.80
NS(=O)(=O)CC1CN(c2nc(OCC34CCCN3CCC4)nc3c(F)c(-c4cccc5cccc(F)c45)ncc23)CCO1 (stereo not drawn) [Example 249, 1-(4-(8-fluoro-7-(8-fluoronaphthalen-1-yl)-2-((tetrahydro-1H-pyrrolizin-7a(5H)-yl)methoxy)pyrido[4,3-d]pyrimidin-4-yl)morpholin-2-yl)methanesulfonamide]	1280	808	5.10	5.89	6.37	6.01	6.13	6.01	5.97
CS(=O)(=O)C1CCCCN(c2nc(OCC34CCCN3CCC4)nc3c(F)c(-c4cccc5cccc(F)c45)ncc23)C1 (stereo not drawn) [Example 250, 8-fluoro-7-(8-fluoronaphthalen-1-yl)-2-((hexahydro-1H-pyrrolizin-7a-yl)methoxy)-4-(3-(methylsulfonyl)azepan-1-yl)pyrido[4,3-d]pyrimidine]	3510	5310	5.14	5.47	5.40	5.41	5.42	5.17	5.45
CS(=O)(=O)C1CCCCCN(c2nc(OCC34CCCN3CCC4)nc3c(F)c(-c4cccc5cccc(F)c45)ncc23)C1 (stereo not drawn) [Example 251, 8-fluoro-7-(8-fluoronaphthalen-1-yl)-2-((hexahydro-1H-pyrrolizin-7a-yl)methoxy)-4-(3-(methylsulfonyl)azocan-1-yl)pyrido[4,3-d]pyrimidine]	3780	6250	5.17	5.41	4.84	5.21	5.24	5.19	5.42

— patent publication US12398154B2, “Azaquinazoline pan-KRas inhibitors” (Mirati Therapeutics, Inc., priority 2020, dated 2025)
